Target: human F508del-CFTR (Homo sapiens, UniProt P13569, DEL508-508)
Experiment: F508del-CFTR cell surface expression (corrector activity), DiscoveRx ß-galactosidase complementation chemiluminescence assay in recombinant U2OS cell line;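 further: U2OS cells co-expressing ProLink-tagged F508del-CFTR and a membrane-anchored enzyme acceptor, where more surface CFTR restores β-galactosidase activity measured by chemiluminescence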
Settings: U2OS cells, 16h compound incubation; for EC50: EC50, F508del-CFTR cell surface expression, geomean of several measurements; for Emax: U2OS, in relation to the Emax of the corrector lumacaftor (=100%), arithmetic mean

Sequence of human F508del-CFTR (P13569 with tags, fused parts or gaps DEL508-508): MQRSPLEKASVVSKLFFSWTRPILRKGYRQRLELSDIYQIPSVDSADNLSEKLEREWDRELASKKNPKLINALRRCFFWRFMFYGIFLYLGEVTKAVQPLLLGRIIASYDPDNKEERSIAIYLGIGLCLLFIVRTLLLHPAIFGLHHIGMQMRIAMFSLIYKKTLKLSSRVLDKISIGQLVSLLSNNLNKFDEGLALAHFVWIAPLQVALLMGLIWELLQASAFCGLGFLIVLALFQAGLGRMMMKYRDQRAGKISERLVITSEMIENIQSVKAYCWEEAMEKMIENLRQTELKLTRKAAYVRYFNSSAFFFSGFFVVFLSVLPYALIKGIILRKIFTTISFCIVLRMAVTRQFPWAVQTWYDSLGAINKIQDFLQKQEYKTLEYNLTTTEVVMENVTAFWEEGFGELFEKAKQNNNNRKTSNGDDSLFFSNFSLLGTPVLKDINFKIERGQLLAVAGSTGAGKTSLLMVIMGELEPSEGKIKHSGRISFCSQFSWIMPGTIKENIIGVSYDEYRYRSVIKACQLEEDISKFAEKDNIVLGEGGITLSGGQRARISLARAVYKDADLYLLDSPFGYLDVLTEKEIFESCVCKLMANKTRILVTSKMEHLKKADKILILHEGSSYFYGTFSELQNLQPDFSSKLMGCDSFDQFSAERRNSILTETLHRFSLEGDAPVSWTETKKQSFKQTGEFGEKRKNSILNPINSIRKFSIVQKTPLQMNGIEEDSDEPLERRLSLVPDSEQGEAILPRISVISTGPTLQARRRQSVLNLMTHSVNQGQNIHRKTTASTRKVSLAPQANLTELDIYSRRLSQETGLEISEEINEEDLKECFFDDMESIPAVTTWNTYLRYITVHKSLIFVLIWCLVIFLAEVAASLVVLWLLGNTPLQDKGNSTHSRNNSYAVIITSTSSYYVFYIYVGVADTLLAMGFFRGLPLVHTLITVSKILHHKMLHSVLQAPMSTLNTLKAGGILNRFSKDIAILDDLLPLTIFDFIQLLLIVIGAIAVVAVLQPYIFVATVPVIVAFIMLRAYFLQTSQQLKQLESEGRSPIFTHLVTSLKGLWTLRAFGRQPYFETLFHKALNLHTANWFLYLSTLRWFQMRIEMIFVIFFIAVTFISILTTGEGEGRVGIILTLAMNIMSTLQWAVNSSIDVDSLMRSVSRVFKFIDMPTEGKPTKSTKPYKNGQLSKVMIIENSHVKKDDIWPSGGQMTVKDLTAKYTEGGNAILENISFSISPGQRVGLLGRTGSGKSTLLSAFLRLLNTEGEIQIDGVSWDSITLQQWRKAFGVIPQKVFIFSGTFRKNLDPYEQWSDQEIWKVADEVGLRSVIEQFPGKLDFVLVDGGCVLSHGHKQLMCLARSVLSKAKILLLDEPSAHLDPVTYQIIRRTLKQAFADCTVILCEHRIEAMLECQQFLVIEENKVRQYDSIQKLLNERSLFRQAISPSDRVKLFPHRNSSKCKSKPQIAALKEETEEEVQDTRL

Compound	EC50 [nM]	Emax [%]
Cc1cc2c3c(ccc2cn1)OC[C@@H](Cc1ccccc1)NC(=O)[C@@H](CC(F)(F)F)N(C)C(=O)[C@H](CC(C)C)N(C)C(=O)C[C@@H](C(=O)NCCc1cc(C2CC2)no1)NC3=O [Example 956, (3S,7S,10R,13R)-13-benzyl-N-(2-(3-cyclopropylisoxazol-5-yl)ethyl)-7-isobutyl-6,9,20-trimethyl-1,5,8,11-tetraoxo-10-(2,2,2-trifluoroethyl)-1,2,3,4,5,6,7,8,9,10,11,12,13,14-tetradecahydro-[1]oxa[4,7,10,14]tetraazacycloheptadecino[16,17-f]isoquinoline-3-carboxamide]	508	412
Cc1cc2c3c(ccc2cn1)OC[C@@H](Cc1ccccc1)NC(=O)[C@@H](CC(F)(F)F)N(C)C(=O)[C@H](CC(C)C)N(C)C(=O)C[C@@H](C(=O)NCCc1cc(C2CC2)on1)NC3=O [Example 958, (3S,7S,10R,13R)-13-benzyl-N-(2-(5-cyclopropylisoxazol-3-yl)ethyl)-7-isobutyl-6,9,20-trimethyl-1,5,8,11-tetraoxo-10-(2,2,2-trifluoroethyl)-1,2,3,4,5,6,7,8,9,10,11,12,13,14-tetradecahydro-[1]oxa[4,7,10,14]tetraazacycloheptadecino[16,17-f]isoquinoline-3-carboxamide]	338	439
Cc1cc2c3c(ccc2cn1)OC[C@@H](Cc1ccccc1)NC(=O)[C@@H](CC(F)(F)F)N(C)C(=O)[C@H](CC(C)C)N(C)C(=O)C[C@@H](C(=O)NCCn1nnc(C2CC2)n1)NC3=O [Example 959, (3S,7S,10R,13R)-13-benzyl-N-(2-(5-cyclopropyl-2H-tetrazol-2-yl)ethyl)-7-isobutyl-6,9,20-trimethyl-1,5,8,11-tetraoxo-10-(2,2,2-trifluoroethyl)-1,2,3,4,5,6,7,8,9,10,11,12,13,14-tetradecahydro-[1]oxa[4,7,10,14]tetraazacycloheptadecino[16,17-f]isoquinoline-3-carboxamide]	222	413
COCCn1cc(CCNC(=O)[C@@H]2CC(=O)N(C)[C@@H](CC(C)C)C(=O)N(C)[C@H](Cc3nc(C(F)(F)F)no3)C(=O)N[C@H](Cc3ccccc3)COc3cc(C)nc(OC)c3C(=O)N2)cn1 [Example 961, (3R,6R,9S,13S)-3-benzyl-9-isobutyl-16-methoxy-N-(2-(1-(2-methoxyethyl)-1H-pyrazol-4-yl)ethyl)-7,10,18-trimethyl-5,8,11,15-tetraoxo-6-((3-(trifluoromethyl)-1,2,4-oxadiazol-5-yl)methyl)-2,3,4,5,6,7,8,9,10,11,12,13,14,15-tetradecahydropyrido[3,4-p][1]oxa[4,7,10,14]tetraazacycloheptadecine-13-carboxamide]	353	453
COCCn1cc(CCNC(=O)[C@@H]2CC(=O)N(C)[C@@H](CC(C)C)C(=O)N(C)[C@H](Cc3nc(C(F)(F)F)no3)C(=O)N[C@H](Cc3ccccc3)COc3ccc4ncc(F)cc4c3C(=O)N2)cn1 [Example 962, (3S,7S,10R,13R)-13-benzyl-20-fluoro-7-isobutyl-N-(2-(1-(2-methoxyethyl)-1H-pyrazol-4-yl)ethyl)-6,9-dimethyl-1,5,8,11-tetraoxo-10-((3-(trifluoromethyl)-1,2,4-oxadiazol-5-yl)methyl)-1,2,3,4,5,6,7,8,9,10,11,12,13,14-tetradecahydro-[1]oxa[4,7,10,14]tetraazacycloheptadecino[16,17-f]quinoline-3-carboxamide]	103	453
CC(C)C[C@H]1C(=O)N(C)[C@H](Cc2nc(C(F)(F)F)no2)C(=O)N[C@H](Cc2ccccc2)COc2ccc3ncc(F)cc3c2C(=O)N[C@H](C(=O)NCCc2nc(C3CC3)no2)CC(=O)N1C [Example 964, (3S,7S,10R,13R)-13-benzyl-N-(2-(3-cyclopropyl-1,2,4-oxadiazol-5-yl)ethyl)-20-fluoro-7-isobutyl-6,9-dimethyl-1,5,8,11-tetraoxo-10-((3-(trifluoromethyl)-1,2,4-oxadiazol-5-yl)methyl)-1,2,3,4,5,6,7,8,9,10,11,12,13,14-tetradecahydro-[1]oxa[4,7,10,14]tetraazacycloheptadecino[16,17-f]quinoline-3-carboxamide]	21	418
Cc1cc(CCNC(=O)[C@@H]2CC(=O)N(C)[C@@H](CC(C)C)C(=O)N(C)[C@H](Cc3nc(C(F)(F)F)no3)C(=O)N[C@H](Cc3ccccc3)COc3ccc4ncc(F)cc4c3C(=O)N2)on1 [Example 965, (3S,7S,10R,13R)-13-benzyl-20-fluoro-7-isobutyl-6,9-dimethyl-N-(2-(3-methylisoxazol-5-yl)ethyl)-1,5,8,11-tetraoxo-10-((3-(trifluoromethyl)-1,2,4-oxadiazol-5-yl)methyl)-1,2,3,4,5,6,7,8,9,10,11,12,13,14-tetradecahydro-[1]oxa[4,7,10,14]tetraazacycloheptadecino[16,17-f]quinoline-3-carboxamide]	32	453

Second part, the molecule after the results:

EC50 [nM]	Emax [%]	Compound
339	438	Cc1cc2c3c(ccc2cn1)OC[C@@H](Cc1ccccc1)NC(=O)C1(CC(F)(F)C1)N(C)C(=O)[C@H](CC(C)C)N(C)C(=O)C[C@@H](C(=O)NCCc1nc(C2CC2)no1)NC3=O [Example 952, (3′S,7′S,13′R)-13′-benzyl-N-(2-(3-cyclopropyl-1,2,4-oxadiazol-5-yl)ethyl)-3,3-difluoro-7′-isobutyl-6′,9′,20′-trimethyl-1′,5′,8′,11′-tetraoxo-2′,3′,4′,5′,6′,7′,8′,9′,11′,12′,13′,14′-dodecahydro-1′H-spiro[cyclobutane-1,10′-[1]oxa[4,7,10,14]tetraazacycloheptadecino[16,17-f]isoquinoline]-3′-carboxamide]
268	394	COc1cc(CCNC(=O)[C@@H]2CC(=O)N(C)[C@@H](CC(C)C)C(=O)N(C)C3(CC(F)(F)C3)C(=O)N[C@H](Cc3ccccc3)COc3ccc4cnc(C)cc4c3C(=O)N2)on1 [Example 953, (3′S,7′S,13′R)-13′-benzyl-3,3-difluoro-7′-isobutyl-N-(2-(3-methoxyisoxazol-5-yl)ethyl)-6′,9′,20′-trimethyl-1′,5′,8′,11′-tetraoxo-2′,3′,4′,5′,6′,7′,8′,9′,11′,12′,13′,14′-dodecahydro-1′H-spiro[cyclobutane-1,10′-[1]oxa[4,7,10,14]tetraazacycloheptadecino[16,17-f]isoquinoline]-3′-carboxamide]
382	383	COc1noc(CCNC(=O)[C@@H]2CC(=O)N(C)[C@@H](CC(C)C)C(=O)N(C)C3(CC(F)(F)C3)C(=O)N[C@H](Cc3ccccc3)COc3ccc4cnc(C)cc4c3C(=O)N2)n1 [Example 954, (3′S,7′S,13′R)-13′-benzyl-3,3-difluoro-7′-isobutyl-N-(2-(3-methoxy-1,2,4-oxadiazol-5-yl)ethyl)-6′,9′,20′-trimethyl-1′,5′,8′,11′-tetraoxo-2′,3′,4′,5′,6′,7′,8′,9′,11′,12′,13′,14′-dodecahydro-1′H-spiro[cyclobutane-1,10′-[1]oxa[4,7,10,14]tetraazacycloheptadecino[16,17-f]isoquinoline]-3′-carboxamide]
381	394	Cc1cc2c3c(ccc2cn1)OC[C@@H](Cc1ccccc1)NC(=O)C1(CC(F)(F)C1)N(C)C(=O)[C@H](CC(C)C)N(C)C(=O)C[C@@H](C(=O)NCCn1nnc(C2CC2)n1)NC3=O [Example 955, (3′S,7′S,13′R)-13′-benzyl-N-(2-(5-cyclopropyl-2H-tetrazol-2-yl)ethyl)-3,3-difluoro-7′-isobutyl-6′,9′,20′-trimethyl-1′,5′,8′,11′-tetraoxo-2′,3′,4′,5′,6′,7′,8′,9′,11′,12′,13′,14′-dodecahydro-1′H-spiro[cyclobutane-1,10′-[1]oxa[4,7,10,14]tetraazacycloheptadecino[16,17-f]isoquinoline]-3′-carboxamide]
192	451	COc1cc(CCNC(=O)[C@@H]2CC(=O)N(C)[C@@H](CC(C)C)C(=O)N(C)[C@H](CC(F)(F)F)C(=O)N[C@H](Cc3ccccc3)COc3ccc4cnc(C)cc4c3C(=O)N2)on1 [Example 957, (3S,7S,10R,13R)-13-benzyl-7-isobutyl-N-(2-(3-methoxyisoxazol-5-yl)ethyl)-6,9,20-trimethyl-1,5,8,11-tetraoxo-10-(2,2,2-trifluoroethyl)-1,2,3,4,5,6,7,8,9,10,11,12,13,14-tetradecahydro-[1]oxa[4,7,10,14]tetraazacycloheptadecino[16,17-f]isoquinoline-3-carboxamide]
85	507	COc1noc(CCNC(=O)[C@@H]2CC(=O)N(C)[C@@H](CC(C)C)C(=O)N(C)[C@H](CC(F)(F)F)C(=O)N[C@H](Cc3ccccc3)COc3ccc4cnc(C)cc4c3C(=O)N2)c1F [Example 960, (3S,7S,10R,13R)-13-benzyl-N-(2-(4-fluoro-3-methoxyisoxazol-5-yl)ethyl)-7-isobutyl-6,9,20-trimethyl-1,5,8,11-tetraoxo-10-(2,2,2-trifluoroethyl)-1,2,3,4,5,6,7,8,9,10,11,12,13,14-tetradecahydro-[1]oxa[4,7,10,14]tetraazacycloheptadecino[16,17-f]isoquinoline-3-carboxamide]
267	447	COc1noc(CCNC(=O)[C@@H]2CC(=O)N(C)[C@@H](CC(C)C)C(=O)N(C)C3(CC3)C(=O)N[C@H](Cc3ccccc3)COc3ccc4ncc(F)cc4c3C(=O)N2)c1F [Example 963, (3′S,7′S,13′R)-13′-benzyl-20′-fluoro-N-(2-(4-fluoro-3-methoxyisoxazol-5-yl)ethyl)-7′-isobutyl-6′,9′-dimethyl-1′,5′,8′,11′-tetraoxo-2′,3′,4′,5′,6′,7′,8′,9′,11′,12′,13′,14′-dodecahydro-1′H-spiro[cyclopropane-1,10′-[1]oxa[4,7,10,14]tetraazacycloheptadecino[16,17-f]quinoline]-3′-carboxamide]
